# Measured values reported in patent US11752156B2, “Compositions and methods for treating hyperproliferative skin disorders” (Athenex HK Innovative Limited, priority 2018, dated 2023).
# Several values for one entry are separate records, joined by “and”; a condition that tells them apart may be missing. Equal entries are not always repeated. Where two headings read alike, the source gives them in different places.
# Experiments:
# [1] = test system: human keratinocytes in culture (cell line CCD-1106 KERTr); assay: cell viability / cell growth of human keratinocytes in culture, KX01, calcipotriol and fixed-ratio combinations; type: cell-based; set-up: cell growth (cell viability): unit not given here
# Description: Typical data from studies of the effects of compound KX01 provided in combination with calcipotriol on growth of human keratinocytes in culture (cell line CCD-1106 KERTr) are shown in FIGS. 1 to 3 and Tables 1 to 6. FIG. 1 and Tables 1 and 2 show the degree of growth inhibition found in a typical study performed with KX01 and calcipotriol at a 1:5 ratio.
# SRC-kinase = SRC-kinase (Homo sapiens, UniProt P12931); conditions: cited from earlier work
# apoptosis by G2/M arrest = conditions: cited from earlier work
# tubulin polymerization = conditions: cited from earlier work
# [2] = test system: cell proliferation/growth; assay: combined treatment with KX01 and tazarotene, inhibition of cell proliferation/growth; type: cell-based
# Description: Examples of suitable retinoids include retinol, retinal, retinoic acid isotretinoin, alitreninoin, etretinate, acitretin, adapalene, bexarotene, and/or tazarotene. FIGS. 7 and 8 show the effects of tazarotene on growth of cells in culture, including CCD-1106 KERTr keratinocytes (FIG. 7) and A431 cells (epidermoid cells obtained from a human squamous cell carcinoma, FIG. 8).
# [3] = test system: human keratinocyte cell line; assay: combinatorial dose response surface study of cell viability (PSI), KX01 and calcipotriol; type: cell-based; conditions: model estimate
# Description: FIG. 6: Dose response surface of cell viability versus calcipotriol concentration versus KX01 concentration. Synergistic combinations of calcipotriol and KX01 are below the surface of additivity (indicating enhanced inhibition of growth), and antagonistic combinations are above the surface of additivity (indicative of reduced inhibition of growth). Individual dose response curves for KX01 and calcipotriol as determined above can be used to generate dose response surfaces representative of the additive effects of these compounds on keratinocyte growth. […] A PSI value of 1 corresponds to an additive effect. A PSI value of less than 1 indicates a synergistic effect, and a PSI value of greater than 1 indicates an antagonistic effect. Cell viability was measured in a number of experiments. In Experiment 1, the concentrations of calcipotriol were: 0, 3, 9, 27, 81, and 243 nM, and the concentrations of KX01 were: 0, 5, 10, 20, 40, 60, 80, and 160 nM. In Experiment 2, the concentrations of calcipotriol were: 0, 5, 10, 20, 40, 80, 160, 320, and 1280 nM, and the concentrations of KX01 were: 1, 3, 9, 27, and 81 nM. […] It is notable that unexpected synergy is observed across a range of concentrations and combinations. Tables 7, 8, and 9 show the results for determination of individual IC50 and maximum inhibitory concentration values for KX01 and calcipotriol, as well as the PSI value for the drug combination. […]
# [4] = test system: CCD 1106 KERTr human keratinocyte cell line; assay: MTT cell proliferation assay, 72 hours, dark or blue light, keratinocytes; type: cell-based; conditions: for inhibition at 0.01 µM / inhibition at 0.02 µM / inhibition at 0.04 µM / inhibition at 0.08 µM: Homo sapiens, read-out: growth inhibition relative to untreated control
# Experimental: The effects of combined treatment with KX01, a vitamin D derivative, and/or blue/UV light exposure were characterized using a cell proliferation assay. Cell proliferation was assessed by using an MTT assay. Cells were seeded in 96-well plate (3,000-5,000 cells per well) and treated with test compounds at varying concentrations (e.g. KX01: 5 to 80 nM; calcipotriol 5 to 1,280 nM) for 72 hours, either in the dark or exposed to blue light irradiation (for 2, 4, or 6 hours). To each well, 10 μl of 3-(4,5-dimethylthiazol-2-yl)-2,5-diphenyltetrazolium bromide (MTT) (RPI Corporation™) solution (5 mg/ml in PBS) was added and incubated at 37° C. for 3 hours. Next, 100 μl of 20% SDS was added to each well. After overnight incubation at 37° C., the absorbance in each well was measured at 570 nm in a microplate reader (Molecular Devices™). The cell growth curve and GI50s were calculate using GraphPad Prism™ 5 software. Tables 13 and 14 show the results of cell growth inhibition studies (expressed as a percentage relative to control cell growth) for treatment with either KX01 or calcipotriol in combination with exposure to blue light. […] The percentage of growth inhibition relative to untreated control is shown. […] The percentage of growth inhibition relative to untreated control is shown. Tables 15 to 18 show the effects of combined treatment with KX01, calcipotriol, and exposure to blue light at 0 hours, 2 hours, 4 hours, and 6 hours of light exposure (respectively). Values are expressed as the percentage of growth inhibition relative to cells grown under control conditions (0 hours blue light, [KX01]=0, [calcipotriol]=0). […] Results are shown below in Tables 27 to Table 30, which show results from 0, 2, 4, and 6 hours of blue light exposure (respectively). Values are expressed as the percentage of growth inhibition relative to cells grown under control conditions (0 hours blue light, [KX01]=0, [calcipotriol]=0).
# Chain of SRC-kinase (P12931 whole entry): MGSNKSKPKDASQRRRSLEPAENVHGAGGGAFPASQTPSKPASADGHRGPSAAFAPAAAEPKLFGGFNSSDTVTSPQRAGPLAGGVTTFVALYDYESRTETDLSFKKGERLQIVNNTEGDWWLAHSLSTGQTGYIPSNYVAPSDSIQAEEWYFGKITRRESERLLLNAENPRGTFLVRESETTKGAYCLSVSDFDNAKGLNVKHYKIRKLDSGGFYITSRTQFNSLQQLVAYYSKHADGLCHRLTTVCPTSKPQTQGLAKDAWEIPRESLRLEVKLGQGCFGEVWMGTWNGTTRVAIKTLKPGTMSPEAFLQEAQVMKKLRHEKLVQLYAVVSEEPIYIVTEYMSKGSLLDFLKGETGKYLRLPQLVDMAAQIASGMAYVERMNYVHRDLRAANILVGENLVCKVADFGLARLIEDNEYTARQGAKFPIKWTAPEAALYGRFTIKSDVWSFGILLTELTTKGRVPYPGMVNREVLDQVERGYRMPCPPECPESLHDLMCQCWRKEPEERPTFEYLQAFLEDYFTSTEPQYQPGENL
structure (smiles),measurement,setting,value
"O=C(Cc1ccc(-c2ccc(OCCN3CCOCC3)cc2)cn1)NCc1ccccc1 [KX01, N-benzyl-2-(5-{4-[2-(morpholine-4-yl)ethoxy]phenyl}pyridine-2-yl)acetamide]",GI50,[1],38 nM and 36 nM
same,GI50,"[1]; Homo sapiens, CCD-1106",32 nM
same,viability at 0.000333 µM,"[1]; Homo sapiens, CCD-1106, concentration 0.333 nM",100%
same,viability at 0.001 µM,"[1]; Homo sapiens, CCD-1106, concentration 1 nM",97%
same,viability at 0.003 µM,"[1]; Homo sapiens, CCD-1106, concentration 3 nM",90.9%
same,viability at 0.009 µM,"[1]; Homo sapiens, CCD-1106, concentration 9 nM",94.7%
same,viability at 0.027 µM,"[1]; Homo sapiens, CCD-1106, concentration 27 nM",67.1%
same,viability at 0.243 µM,"[1]; Homo sapiens, CCD-1106, concentration 243 nM",2.07%
same,viability at 0.729 µM,"[1]; Homo sapiens, CCD-1106, concentration 729 nM",6.66%
same,viability at 2.187 µM,"[1]; Homo sapiens, CCD-1106, concentration 2187 nM",8.91%
same,cell growth (cell viability),"[1]; concentration 0.333 nM, 0.000333 µM",102.3 and 98.0
same,cell growth (cell viability),"[1]; concentration 1 nM, 0.001 µM",99.9 and 101.3
same,cell growth (cell viability),"[1]; concentration 3 nM, 0.003 µM",100.0 and 96.6
same,cell growth (cell viability),"[1]; concentration 9 nM, 0.009 µM",100.2 and 98.2
same,cell growth (cell viability),"[1]; concentration 27 nM, 0.027 µM",79.8 and 80.1
same,cell growth (cell viability),"[1]; concentration 729 nM, 0.729 µM",9.9 and 7.3
same,cell growth (cell viability),"[1]; concentration 2187 nM, 2.187 µM",14.9 and 9.5
same,SRC-kinase inhibition,SRC-kinase,inhibit SRC-kinase
same,induction of apoptosis,apoptosis by G2/M arrest,induces apoptosis by G2/M arrest
same,inhibition of tubulin polymerization,tubulin polymerization,inhibits tubulin polymerization
same,H,[2],3.3
same,IC50,[2],45 nM
same,Imax,[2],0.92
same,IC50,"[3]; Homo sapiens, Keratinocyte",41.3 nM
same,IC50,[3],32.8 nM and 47 nM
same,Max Inhibition,[3],0.856 and 0.77 and 0.741
same,inhibition at 0.01 µM,"[4]; CCD-1106, 2 h, KX01 10 nM, blue light 2 h",27%
same,inhibition at 0.02 µM,"[4]; CCD-1106, 2 h, KX01 20 nM, blue light 2 h",63%
same,inhibition at 0.04 µM,"[4]; CCD-1106, 2 h, KX01 40 nM, blue light 2 h",92%
same,inhibition at 0.01 µM,"[4]; CCD-1106, 4 h, KX01 10 nM, blue light 4 h",47%
same,inhibition at 0.02 µM,"[4]; CCD-1106, 4 h, KX01 20 nM, blue light 4 h",64%
same,inhibition at 0.04 µM,"[4]; CCD-1106, 4 h, KX01 40 nM, blue light 4 h",87%
same,inhibition at 0.08 µM,"[4]; CCD-1106, 4 h, KX01 80 nM, blue light 4 h",92%
same,inhibition at 0.01 µM,"[4]; CCD-1106, 6 h, KX01 10 nM, blue light 6 h",56%
same,inhibition at 0.02 µM,"[4]; CCD-1106, 6 h, KX01 20 nM, blue light 6 h",70%
same,inhibition at 0.04 µM,"[4]; CCD-1106, 6 h, KX01 40 nM, blue light 6 h",88%
same,inhibition at 0.08 µM,"[4]; CCD-1106, 6 h, KX01 80 nM, blue light 6 h",87%
same,growth inhibition relative to untreated control,"[4]; KX01 10 nM, blue light 0 h",4% and 9% and 6%
same,growth inhibition relative to untreated control,"[4]; KX01 10 nM, blue light 2 h",32% and 34%
same,growth inhibition relative to untreated control,"[4]; KX01 10 nM, blue light 4 h",50%
same,growth inhibition relative to untreated control,"[4]; KX01 10 nM, blue light 6 h",62% and 57%
same,growth inhibition relative to untreated control,"[4]; KX01 20 nM, blue light 0 h",49%
same,growth inhibition relative to untreated control,"[4]; KX01 20 nM, blue light 2 h",74% and 68%
same,growth inhibition relative to untreated control,"[4]; KX01 20 nM, blue light 4 h",69% and 68%
same,growth inhibition relative to untreated control,"[4]; KX01 20 nM, blue light 6 h",67% and 73%
same,growth inhibition relative to untreated control,"[4]; KX01 40 nM, blue light 0 h",90% and 45%
same,growth inhibition relative to untreated control,"[4]; KX01 40 nM, blue light 2 h",98% and 91%
same,growth inhibition relative to untreated control,"[4]; KX01 40 nM, blue light 4 h",86%
same,growth inhibition relative to untreated control,"[4]; KX01 40 nM, blue light 6 h",84%
same,growth inhibition relative to untreated control,"[4]; KX01 80 nM, blue light 0 h",96% and 48% and 95%
same,growth inhibition relative to untreated control,"[4]; KX01 80 nM, blue light 4 h",93% and 90%
same,growth inhibition relative to untreated control,"[4]; KX01 80 nM, blue light 6 h",83%
same,effect of blue light exposure with the drug on cell growth inhibition,[4]; for example 6 hours of blue light with 10 nm KX01,Synergistic effects
